Literature values in patent US20070077261A1 (priority 2005, published 2007).

Conditions: amount dissolving in 2 ml of glycerin; The Merck Index, 11th Edition

solubility of urea in glycerin: 1 gram
SMILES: NC(N)=O [urea]
